Type in all cases: cell-based, human
The subject of assay [1] is immortalized ureteral epithelial cells (SV-HUC-1). In words: CCK-8 anti-proliferative assay, normal cells SV-HUC-1. The note with it: Homo sapiens, SV-HUC1; Table 13; normal cells; co-incubated 48 h; read-out: Anti-proliferative activity (IC50 ± standard deviation) SV-HUC-1. Here is the method: (§1) The obtained quinazolinyl-aryl urea derivatives were screened for compounds with optimal activity using the following method.
(§2) Experimental Procedure for Anti-Proliferative Activity Evaluation: The CCK-8 assay was employed. Cells in logarithmic growth phase were harvested, adjusted to appropriate density, and uniformly seeded into 96-well plates using a multichannel pipette (180 μL cell suspension containing complete medium per well, 5,000 cells/well). Blank control wells (containing basal medium, CCK-8 solution, and DMSO only) were set. Cells were incubated at 37° C. under 5% CO2. After 70% confluency was reached, test compounds (target compounds/positive controls) were added at final concentrations of 1, 2, 4, 6, 8, 12, 16, 24, and 30 μM (3 repeated wells per concentration). Compounds were pre-dissolved in DMSO, sterilized, and diluted with medium before adding 20 μL/well. After co-incubation for designated durations, 10 μL CCK-8 solution was added per well followed by 1-4 h incubation (different cells have different incubation times). […] Inhibition rates were calculated as: (ODcontrol−ODtreatment)/ODcontrol×100%. Median inhibitory concentrations (IC50 values) were derived using Origin v8.0 software.
Background: Formazan colour is commonly taken as a measure of viable cells.

The next assay has as its system A549 cells. The assay is described as follows: CCK-8 anti-proliferative assay, A549. The conditions noted are these: Homo sapiens, A549; Table 13; co-incubated 48 h; read-out: Anti-proliferative activity (IC50 ± standard deviation) A549. The gist of the method: (§3)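 CCK-8 viability assay: compounds at final 1, 2, 4, 6, 8, 12, 16, 24 and 30 μM (3 wells each) added once cultures of 5,000 cells/well reached 70% confluence at 37° C, 5% CO2.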

For a further assay, the system named is J82 cells. In words: CCK-8 anti-proliferative assay, J82. The conditions noted are these: Homo sapiens, J82; Table 10; co-incubated 48 h; read-out: Anti-proliferative activity (IC50 ± standard deviation) J82. Here is the method: as §1, §2
The next assay concerns Hep G2 cells. In words: CCK-8 anti-proliferative assay, Hep G2. The conditions noted are these: Homo sapiens, HepG2; Table 12; co-incubated 48 h; read-out: Anti-proliferative activity (IC50 ± standard deviation) Hep G2. The gist of the method: (§4)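 Absorbance at 450 nm after CCK-8 labelling (1–4 h, varying by cell line) gave inhibition relative to untreated control, from which IC50 values were derived. Compounds were applied at final concentrations of 1 to 30 μM in triplicate wells once cultures reached 70% confluency, with co-incubation for designated durations.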

The subject of a further assay is PANC-1 cells. In words: CCK-8 anti-proliferative assay, PANC-1. The note with it: Homo sapiens, PANC-1; Table 11; co-incubated 48 h; read-out: Anti-proliferative activity (IC50 ± standard deviation) PANC-1. The method in brief: as §4
The subject of another assay is UM-UC-3 cells. In words: CCK-8 anti-proliferative assay, UM-UC-3. The note with it: Homo sapiens, UMUC3; Table 10; co-incubated 48 h; read-out: Anti-proliferative activity (IC50 ± standard deviation) UM-UC-3. Here is the method:
as §1, §2

A further assay relates to BxPC-3 cells. The assay is described as follows: CCK-8 anti-proliferative assay, BxPC-3. The note with it: Homo sapiens, BXPC-3; Table 11; co-incubated 48 h; read-out: Anti-proliferative activity (IC50 ± standard deviation) BxPC-3. The gist of the method:
as §4

A further assay concerns MCF-7 cells. In words: CCK-8 anti-proliferative assay, MCF-7. The note with it: Homo sapiens, MCF7; Table 12; co-incubated 48 h; read-out: Anti-proliferative activity (IC50 ± standard deviation) MCF-7. The gist of the method: as §3
In the next assay the test system is MG-63 cells. The assay is described as follows: CCK-8 anti-proliferative assay, MG-63. The note with it: Homo sapiens, MG-63; Table 11; co-incubated 48 h; read-out: Anti-proliferative activity (IC50 ± standard deviation) MG-63. An excerpt:
(§5) The obtained quinazolinyl-aryl urea derivatives were screened for compounds with optimal activity using the following method. All cell lines employed in this experiment were of human origin, including: bladder cancer cells: J82, UM-UC-3, T24, 5637, pancreatic cancer cells: BxPC-3, PANC-1, osteosarcoma cells: 143B, MG-63, cervical cancer cells: HeLa, breast cancer cells: MCF-7, NSCLC cells: A549, hepatoblastoma cells: Hep G2, and ovarian cancer cells: SK-OV-3, as well as normal cell lines: immortalized ureteral epithelial cells (SV-HUC-1), embryonic lung fibroblasts (WI-38).
(§6) Experimental Procedure for Anti-Proliferative Activity Evaluation: The CCK-8 assay was employed. Cells in logarithmic growth phase were harvested, adjusted to appropriate density, and uniformly seeded into 96-well plates using a multichannel pipette (180 μL cell suspension containing complete medium per well, 5,000 cells/well). Blank control wells (containing basal medium, CCK-8 solution, and DMSO only) were set. Cells were incubated at 37° C. under 5% CO2. After 70% confluency was reached, test compounds (target compounds/positive controls) were added at final concentrations of 1, 2, 4, 6, 8, 12, 16, 24, and 30 μM (3 repeated wells per concentration). Compounds were pre-dissolved in DMSO, sterilized, and diluted with medium before adding 20 μL/well. After co-incubation for designated durations, 10 μL CCK-8 solution was added per well followed by 1-4 h incubation (different cells have different incubation times). The reaction was terminated, and OD (optical density) values at 450 nm were measured using a microplate reader. Inhibition rates were calculated as: (ODcontrol−ODtreatment)/ODcontrol×100%. Median inhibitory concentrations (IC50 values) were derived using Origin v8.0 software.

A further assay has as its system HeLa cells. In words: CCK-8 anti-proliferative assay, HeLa. The conditions noted are these: Homo sapiens, HeLa; Table 12; co-incubated 48 h; read-out: Anti-proliferative activity (IC50 ± standard deviation) HeLa. Here is the method: as §1, §2
The subject of a further assay is 143B cells. In words: CCK-8 anti-proliferative assay, 143B. The conditions noted are these: Homo sapiens, 143B; Table 11; co-incubated 48 h; read-out: Anti-proliferative activity (IC50 ± standard deviation) 143B.
Excerpt: as §5, §6

For assay [2], the system named is embryonic lung fibroblasts (WI-38). The assay is described as follows: CCK-8 anti-proliferative assay, normal cells WI-38. The note with it: Homo sapiens, WI-38, Table 13, co-incubated 48 h, read-out: Anti-proliferative activity (IC50 ± standard deviation) WI-38.
Excerpt: as §5, §6

The next assay has as its system SK-OV-3 cells. The assay is described as follows: CCK-8 anti-proliferative assay, SK-OV-3. The conditions noted are these: Homo sapiens, SK-OV-3; Table 12; co-incubated 48 h; read-out: Anti-proliferative activity (IC50 ± standard deviation) SK-OV-3. Here is the method: as §1, §2
In another assay the test system is 5637 cells. The assay is described as follows: CCK-8 anti-proliferative assay, 5637. The note with it: Homo sapiens; Table 10; co-incubated 48 h; read-out: Anti-proliferative activity (IC50 ± standard deviation) 5637. The method in brief: as §3
In a further assay the test system is T24 cells. The assay is described as follows: CCK-8 anti-proliferative assay, T24. The conditions noted are these: Homo sapiens, T-24; Table 10; co-incubated 48 h; read-out: Anti-proliferative activity (IC50 ± standard deviation) T24. The gist of the method:
as §4

Structures are written as SMILES. A value given as a limit tells only on which side of the number the result lay.

`COc1cc2ncnc(NCc3cccc(NC(=O)Nc4ccc(F)c(C(F)(F)F)c4)c3)c2cc1OCCCCCCN1CCC(CN2CCN(c3ccccn3)CC2)CC1` [Compound 8-2u]: the IC50 in assay [1] is 23.1 ± 0.97 µM; in the assay on A549 cells it was 12.4 ± 1.43 µM; with J82 cells, 12.9 ± 0.66 µM; with Hep G2 cells it was 14.3 ± 1.33 µM; in the assay with PANC-1 cells, greater than 30 µM; in the assay on UM-UC-3 cells, 11.9 ± 0.66 µM. Moreover, the IC50 in the assay on BxPC-3 cells is 25.4 ± 1.57 µM; in the assay on MCF-7 cells it was 9.92 ± 0.86 µM; in the assay on MG-63 cells, 16 ± 1.07 µM; in the assay on HeLa cells it was greater than 30 µM; in the assay with 143B cells it was 13.6 ± 0.92 µM; in [2], 15.9 ± 0.85 µM. Also, the IC50 in the assay with SK-OV-3 cells came to 15.6 ± 0.92 µM; in the assay on 5637 cells, 13.2 ± 0.78 µM; with T24 cells it was 14.1 ± 0.77 µM.

For `COc1ccc(NC(=O)Nc2cccc(CNc3ncnc4cc(OC)c(OCCCCCCN5CCC(CN6CCN(c7ccccn7)CC6)CC5)cc34)c2)cc1` [Compound 8-2l, N-(3-(((7-methoxy-6-((6-(4-((4-(pyridin-2-yl)piperazin-1-yl)methyl)piperidin-1-yl)hexyl)oxy)quinazolin-4-yl)amino)methyl)phenyl)-N′-(4-methoxyphenyl)urea], the IC50 is 10.9 ± 0.69 µM in [1]; greater than 30 µM with A549 cells; 7.83 ± 0.69 µM in the assay with J82 cells; 4.74 ± 0.62 µM in the assay with Hep G2 cells; greater than 30 µM in the assay with PANC-1 cells; 12 ± 0.94 µM in the assay with UM-UC-3 cells. Also, the IC50 in the assay on BxPC-3 cells turned out to be 18.9 ± 1.24 µM; in the assay on MCF-7 cells it was 7.29 ± 0.63 µM; in the assay with MG-63 cells, 7.69 ± 0.58 µM; in the assay on HeLa cells, 6.42 ± 0.69 µM; in the assay with 143B cells it was 6.75 ± 0.41 µM; in assay [2], 13.9 ± 0.71 µM. For the same compound, the results for the IC50 in the assay on SK-OV-3 cells, in the assay with 5637 cells and in the assay with T24 cells were 11.7 ± 0.88 µM, 9.12 ± 0.59 µM and 6.02 ± 0.46 µM, respectively.

On to `COc1cc2ncnc(NCc3cccc(NC(=O)Nc4ccc(Cl)cc4)c3)c2cc1OCCCCCCN1CCC(CN2CCN(c3ccccn3)CC2)CC1` [Compound 8-2q, N-(3-(((7-methoxy-6-((6-(4-((4-(pyridin-2-yl)piperazin-1-yl)methyl)piperidin-1-yl)hexyl)oxy)quinazolin-4-yl)amino)methyl)phenyl)-N′-(4-chlorophenyl)urea], for which the 50% inhibitory concentration (IC50) in assay [1] was found to be 9.49 ± 0.73 µM; in the assay on A549 cells it was 13.3 ± 0.86 µM; in the assay on J82 cells, 6.69 ± 0.53 µM; in the assay on Hep G2 cells, 10.7 ± 0.98 µM; in the assay with PANC-1 cells it was 15.2 ± 0.67 µM; with UM-UC-3 cells it was 7.19 ± 0.47 µM. The IC50 in the assay with BxPC-3 cells was determined as 13.2 ± 0.78 µM; in the assay with MCF-7 cells, 6.44 ± 0.71 µM; in the assay with MG-63 cells, 8.61 ± 0.53 µM; with HeLa cells, 7.72 ± 0.34 µM; in the assay on 143B cells, 7.08 ± 0.85 µM; in [2], 7.36 ± 0.23 µM. Moreover, the IC50 is 5.62 ± 0.47 µM in the assay with SK-OV-3 cells, 4.32 ± 0.33 µM with 5637 cells and 6.76 ± 0.38 µM in the assay with T24 cells.

For `COc1cc2ncnc(NCc3cccc(NC(=O)Nc4cccc(C)c4)c3)c2cc1OCCCCCCN1CCC(CN2CCN(c3ccccn3)CC2)CC1` [Compound 8-2c, N-(3-(((7-methoxy-6-((6-(4-((4-(pyridin-2-yl)piperazin-1-yl)methyl)piperidin-1-yl)hexyl)oxy)quinazolin-4-yl)amino)methyl)phenyl)-N′-(3-methylphenyl)urea], the IC50 amounted to 8.28 ± 0.51 µM in assay [1]; 8.39 ± 0.85 µM in the assay on A549 cells; 7.02 ± 0.58 µM with J82 cells; 4.69 ± 0.36 µM in the assay with Hep G2 cells; 19.2 ± 1.08 µM in the assay on PANC-1 cells; 8.98 ± 0.89 µM with UM-UC-3 cells. Moreover, the IC50 in the assay with BxPC-3 cells was determined as 13.4 ± 0.88 µM; with MCF-7 cells, 6.69 ± 0.48 µM; with MG-63 cells, 6.83 ± 0.62 µM; in the assay on HeLa cells, 6.19 ± 0.53 µM; in the assay with 143B cells it was 6.01 ± 0.46 µM; in [2] it was 11.2 ± 0.49 µM. The IC50 in the assay on SK-OV-3 cells turned out to be 7.94 ± 0.66 µM; with 5637 cells, 7.06 ± 0.57 µM; with T24 cells, 7.29 ± 0.61 µM.

As usually defined, the IC50 is the point on the concentration scale where inhibition reaches its midpoint.

Values taken from patent publication US20260285816A1, “Piperazinyl-Modified Quinazolinyl-Aryl Urea Derivative, And Preparation Method And Use Thereof” (Guangxi Normal University, priority 2025, published 2026).
